Measured values as given in the supplement of paper PMC11061612.

Key:
Experiment in all cases: combination Emax (second highest fraction inhibited in the dose matrix, 72 h); higher = more inhibition; extreme values may be limits of the assay
[1] = system: HC-1 (Other Blood Carcinomas)
Method in brief: (§1)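 Bliss excess equals the observed combination effect minus the expected value EA + EB − EA·EB, where EA and EB are the effects of each agent alone. Combination Emax is the second-highest inhibition within the matrix. Inhibition was scaled from CellTiter-Glo 2.0 luminescence, with 0 set by vehicle wells and 1 by blank wells, after 72 hours of two-drug dosing of cells plated in 1536-well plates.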

[2] = system: LC4-1 (B-Lymphoblastic Leukemia)
Method in brief: as §1

[3] = system: BV-173 (Chronic Myelogenous Leukemia)
Method in brief: as §1

EW-3 (Ewing's Sarcoma) = system: EW-3 (Ewing's Sarcoma)
Method in brief: as §1

[4] = system: KYSE-150 (Esophageal Squamous Cell Carcinoma)
Method in brief: as §1

[5] = system: PF-382 (T-Lymphoblastic Leukemia)
Method in brief: as §1

[6] = system: MFE-319 (Endometrial Carcinoma)
Method in brief: as §1

[7] = system: TGBC11TKB (Gastric Carcinoma)
Method in brief: as §1

[8] = system: SCC-9 (Oral Cavity Carcinoma)
Method in brief: as §1

A704 (Kidney Carcinoma) = system: A704 (Kidney Carcinoma)
Method in brief: as §1

[9] = system: NCI-H322M (Lung Adenocarcinoma)
Method in brief: as §1

RPMI-7951 (Melanoma) = system: RPMI-7951 (Melanoma)
Method in brief: as §1

NH-12 (Neuroblastoma) = system: NH-12 (Neuroblastoma)
Method in brief: as §1

GOTO (Neuroblastoma) = system: GOTO (Neuroblastoma)
Method in brief: as §1

[10] = system: EBC-1 (Squamous Cell Lung Carcinoma)
Method in brief: as §1

EW-13 (Ewing's Sarcoma) = system: EW-13 (Ewing's Sarcoma)
Method in brief: as §1

[11] = system: JHH-7 (Hepatocellular Carcinoma)
Method in brief: as §1

GI-1 (Glioblastoma) = system: GI-1 (Glioblastoma)
Method in brief: as §1

[12] = system: NCI-N87 (Gastric Carcinoma)
Method in brief: as §1

[13] = system: OVISE (Ovarian Carcinoma)
Method in brief: as §1

SMILES | combination Emax [1] | combination Emax [2] | combination Emax [3] | combination Emax (EW-3 (Ewing's Sarcoma)) | combination Emax [4] | combination Emax [5] | combination Emax [6] | combination Emax [7] | combination Emax [8] | combination Emax (A704 (Kidney Carcinoma)) | combination Emax [9] | combination Emax (RPMI-7951 (Melanoma)) | combination Emax (NH-12 (Neuroblastoma)) | combination Emax (GOTO (Neuroblastoma)) | combination Emax [10] | combination Emax (EW-13 (Ewing's Sarcoma)) | combination Emax [11] | combination Emax (GI-1 (Glioblastoma)) | combination Emax [12] | combination Emax [13]
Cc1c2c(nn1C)CSCc1cc(n(C)n1)CSc1cc(c3ccccc3c1)OCCCc1c(C(=O)O)n(C)c3c-2c(Cl)ccc13 [AZD5991] + Cn1cnc2c(F)c(Nc3ccc(Br)cc3Cl)c(C(=O)NOCCO)cc21 [Selumetinib] (first compound max 1 µM, 7x7, partner max 3 µM) | 0.402 | 1 | 0.938 | 0.549 | 0.488 | 0.207 | 0.604 | 0.683 | 0.654 | 0.306 | 0.566 | 0.934 | 0.568 | 0.714 | 0.827 | 0.338 | 0.278 | 0.726 | 0.426 | 0.291
COc1cc2c(cc1OCCCCCOc1cc3c(cc1OC)C(=O)N1C=C(C)C[C@H]1C=N3)N=C[C@@H]1CC(C)=CN1C2=O [SG3199] + O=C(c1cc(Cc2n[nH]c(=O)c3ccccc23)ccc1F)N1CCN(C(=O)C2CC2)CC1 [Olaparib] (first compound max 0.001 µM, 7x7, partner max 10 µM) | 0.498 | 0.528 | 0.932 | 0.634 | 0.183 | 0.259 | 0.12 | 0.3 | 0.0776 | 0.202 | 0.256 | 0.203 | 0.319 | 0.522 | 0.183 | 0.584 | 0.108 | 0.175 | 0.125 | 0.0965
Cc1c2c(nn1C)CSCc1cc(n(C)n1)CSc1cc(c3ccccc3c1)OCCCc1c(C(=O)O)n(C)c3c-2c(Cl)ccc13 [AZD5991] + C[C@@H](Nc1cc(F)cc(F)c1)c1cc(C(=O)N(C)C)cc2c(=O)cc(N3CCOCC3)oc12 [AZD8186] (first compound max 1 µM, 7x7, partner max 3 µM) | 0.534 | 0.949 | 0.93 | 0.636 | 0.281 | 0.27 | 0.401 | 0.548 | 0.378 | 0.496 | 0.414 | 0.939 | 0.313 | 0.654 | 0.307 | 0.454 | 0.169 | 0.883 | 0.442 | 0.325
NC1(C(=O)N[C@@H](CCO)c2ccc(Cl)cc2)CCN(c2ncnc3[nH]ccc23)CC1 [Capivasertib] + CCN(CCO)CCCOc1ccc2c(Nc3cc(CC(=O)Nc4cccc(F)c4)[nH]n3)ncnc2c1 [AZD2811] (first compound max 10 µM, 7x7, partner max 1 µM) | 0.629 | 0.905 | 0.915 | 0.595 | 0.536 | 0.916 | 0.423 | 0.244 | 0.275 | 0.324 | 0.338 | 0.766 | 0.728 | 0.793 | 0.395 | 0.388 | 0.294 | 0.754 | 0.73 | 0.41
CCN(CCO)CCCOc1ccc2c(Nc3cc(CC(=O)Nc4cccc(F)c4)[nH]n3)ncnc2c1 [AZD2811] + C=CCn1c(=O)c2cnc(Nc3ccc(N4CCN(C)CC4)cc3)nc2n1-c1cccc(C(C)(C)O)n1 [AZD1775] (first compound max 1 µM, partner max 1 µM) | 0.983 | 0.896 | 0.987 | 0.402 | 0.533 | 0.978 | 0.578 | 0.818 | 0.172 | 0.392 | 0.801 | 0.697 | 0.877 | 0.883 | 0.24 | 0.355 | 0.162 | 0.947 | 0.66 | 0.571
COc1cccc(OCCCN)c1-c1cc(Nc2cnc(C#N)cn2)n[nH]1 [Prexasertib] + CN(C)CCCOc1ccc(-c2ccc3ncc4c(c3c2)n(C2CCOCC2)c(=O)n4C)cn1 [AZD0156] (first compound max 1 µM, 7x7, partner max 1 µM) | 1 | 0.978 | 0.97 | 0.683 | 0.365 | 0.9 | 0.815 | 0.963 | 0.46 | 0.485 | 0.982 | 0.953 | 0.918 | 0.908 | 0.545 | 0.452 | 0.411 | 0.966 | 0.706 | 0.796
CC(=O)c1c(C)c2cnc(Nc3ccc(N4CCNCC4)cn3)nc2n(C2CCCC2)c1=O [Palbociclib] + CN(CC[C@H](CSC1=CC=CC=C1)NC2=C(C=C(C=C2)S(=O)(=O)NC(=O)C3=CC=C(C=C3)N4CCC(CC4)[C@H](C5=CC=CC=C5C6=CC=C(C=C6)Cl)O)S(=O)(=O)C(F)(F)F)CCO [AZD4320] (first compound max 10 µM, 7x7, partner max 1 µM) | 0.831 | – | 0.958 | – | 0.607 | 1 | 0.31 | – | – | 0.935 | 0.517 | 0.678 | 0.988 | 0.846 | 0.875 | 0.649 | – | – | – | 0.889
COc1nnc2ccc(N3CCC(c4ccc(OCCN5CCN(C)C(=O)[C@H]5C)cc4)CC3)nn12 [AZD5153] + CN(CC[C@H](CSC1=CC=CC=C1)NC2=C(C=C(C=C2)S(=O)(=O)NC(=O)C3=CC=C(C=C3)N4CCC(CC4)[C@H](C5=CC=CC=C5C6=CC=C(C=C6)Cl)O)S(=O)(=O)C(F)(F)F)CCO [AZD4320] (first compound max 1 µM, 7x7, partner max 1 µM) | 0.695 | – | 0.957 | – | 0.607 | 1 | 0.476 | – | – | 0.768 | 0.563 | 0.647 | 0.91 | 0.858 | 1 | 0.818 | – | – | – | 0.9
CN(C)CCCOc1ccc(-c2ccc3ncc4c(c3c2)n(C2CCOCC2)c(=O)n4C)cn1 [AZD0156] + O=C(c1cc(Cc2n[nH]c(=O)c3ccccc23)ccc1F)N1CCN(C(=O)C2CC2)CC1 [Olaparib] (first compound max 3 µM, partner max 3 µM) | 0.527 | 0.673 | 0.764 | 0.708 | 0.295 | 0.38 | 0.193 | 0.131 | 0.262 | 0.247 | 0.357 | 0.264 | 0.177 | 0.306 | 0.267 | – | 0.339 | 0.336 | 0.327 | 0.306
CN(CCO)CC[C@H](CSc1ccccc1)Nc1ccc(S(=O)(=O)NC(=O)c2ccc(N3CCC([C@@H](O)c4ccccc4-c4ccc(Cl)cc4)CC3)cc2)cc1S(=O)(=O)C(F)(F)F [AZD4320] + C1CN(CCC1(C(=O)N[C@@H](CCO)C2=CC=C(C=C2)Cl)N)C3=NC=NC4=C3C=CN4 [Capivasertib] (first compound max 1 µM, 7x7, partner max 3 µM) | 0.616 | 1 | 0.962 | 0.918 | 0.347 | 0.98 | – | 0.182 | 0.21 | 0.392 | 0.0734 | 0.54 | 0.886 | 0.378 | 0.935 | 0.677 | 0.391 | 0.627 | 0.571 | 0.89
CS(=O)(=O)CCNCc1ccc(-c2ccc3ncnc(Nc4ccc(OCc5cccc(F)c5)c(Cl)c4)c3c2)o1 [Lapatinib] + NC1(c2ccc(-c3nc4ccn5c(=O)[nH]nc5c4cc3-c3ccccc3)cc2)CCC1 [MK-2206] (first compound max 10 µM, 7x7, partner max 10 µM) | – | 0.954 | – | 0.87 | 0.954 | 0.974 | 0.946 | 0.418 | 0.972 | – | – | – | – | – | – | – | 0.754 | 0.899 | 0.977 | 0.928
C[C@@H](c1ccc2nccn2c1)n1nnc2ncc(-c3cnn(C)c3)nc21 [Savolitinib] + CN(CC[C@H](CSC1=CC=CC=C1)NC2=C(C=C(C=C2)S(=O)(=O)NC(=O)C3=CC=C(C=C3)N4CCC(CC4)[C@H](C5=CC=CC=C5C6=CC=C(C=C6)Cl)O)S(=O)(=O)C(F)(F)F)CCO [AZD4320] (first compound max 1 µM, 7x7, partner max 1 µM) | 0.546 | – | 0.954 | – | 0.219 | 0.993 | 0.191 | – | – | 0.449 | 0.0979 | 0.271 | 0.824 | 0.495 | 1 | 0.639 | – | – | – | 0.7
C=CCn1c(=O)c2cnc(Nc3ccc(N4CCN(C)CC4)cc3)nc2n1-c1cccc(C(C)(C)O)n1 [AZD1775] + C1CN(CCC1(C(=O)N[C@@H](CCO)C2=CC=C(C=C2)Cl)N)C3=NC=NC4=C3C=CN4 [Capivasertib] (first compound max 3 µM, partner max 3 µM) | 0.982 | 0.884 | – | 0.518 | 0.727 | 0.952 | 0.858 | 0.939 | 0.638 | 0.438 | 0.768 | 0.856 | 0.852 | 0.712 | 0.7 | – | 0.727 | 0.907 | 0.689 | 0.651
